Source: patent publication US20210300936A1, “PYRAZOLOTRIAZOLOPYRIMIDINE DERIVATIVES AS A2A RECEPTOR ANTAGONIST” (BEIGENE, LTD., priority 2018, published 2021)

Target: human A2A receptor (A2AR) (Homo sapiens, UniProt P29274)
Assay: Luciferase reporter assay (HEK293-A2AR-luc2p/CRE/Hygro cells, 3 nM CGS21680)
Assay type: cell-based
Conditions: 3 nM CGS21680, 5 h incubation
Outline: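 HEK293 cells stably expressing A2AR with a CRE-luc2P reporter were seeded in 1% FBS with 1 U/mL adenosine deaminase. After 18 h, cells got 3 nM CGS21680 plus antagonist at 0.1–10000 nM for 5 h, followed by a luciferase readout. IC50 is relative to the 3 nM CGS21680 signal, set as 100%.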

human A2A receptor (A2AR), sequence (P29274 whole entry): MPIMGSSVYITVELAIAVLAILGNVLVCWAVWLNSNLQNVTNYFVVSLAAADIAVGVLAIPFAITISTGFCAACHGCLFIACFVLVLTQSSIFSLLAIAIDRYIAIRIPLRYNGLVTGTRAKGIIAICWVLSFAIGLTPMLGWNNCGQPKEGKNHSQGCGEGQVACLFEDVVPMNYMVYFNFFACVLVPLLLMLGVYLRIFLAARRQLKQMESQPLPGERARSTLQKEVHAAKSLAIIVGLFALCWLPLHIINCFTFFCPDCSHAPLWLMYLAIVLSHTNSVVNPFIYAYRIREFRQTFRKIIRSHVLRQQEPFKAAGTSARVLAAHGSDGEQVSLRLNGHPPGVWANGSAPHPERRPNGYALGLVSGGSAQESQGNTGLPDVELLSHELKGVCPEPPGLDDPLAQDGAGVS

Question: For `COCCOc1ccc(N2CCN(C(=O)C(c3ccccc3)n3ncc4c3nc(N)n3nc(-c5ccco5)nc43)C[C@H]2C)cc1` (stereo partly drawn) [Compound A47, 2-(5-amino-2-(furan-2-yl)-7H-pyrazolo[4,3-e][1,2,4]triazolo[1,5-c]pyrimidin-7-yl)-1-((R)-4-(4-(2-methoxyethoxy)phenyl)-3-methylpiperazin-1-yl)-2-phenylethan-1-one], which IC50 is on record?
Answer: The IC50 was 2.8 nM.

Question: For `Nc1nc2c(cnn2C(C(=O)N2CCN(c3ccc(F)cc3F)CC2)c2ccccc2)c2nc(-c3ccco3)nn12` (stereo not drawn) [Compound A48, 2-(5-amino-2-(furan-2-yl)-7H-pyrazolo[4,3-e][1,2,4]triazolo[1,5-c]pyrimidin-7-yl)-1-(4-(2,4-difluorophenyl)piperazin-1-yl)-2-phenylethan-1-one], which IC50 is on record?
Answer: The IC50 was 1.6 nM.

Question: How did the IC50 turn out when `Nc1nc2c(cnn2C(C(=O)N2CCN(c3ccc(F)cc3)CC2)c2ccccc2)c2nc(-c3ccco3)nn12` (stereo not drawn) [Compound A49, 2-(5-amino-2-(furan-2-yl)-7H-pyrazolo[4,3-e][1,2,4]triazolo[1,5-c]pyrimidin-7-yl)-1-(4-(4-fluorophenyl)piperazin-1-yl)-2-phenylethan-1-one] was run?
Answer: Its IC50 is 3.2 nM.

Question: Which IC50 does the source give for `COCCOc1ccc(N2CCN(C(=O)C(c3ccccc3)n3ncc4c3nc(N)n3nc(-c5ccco5)nc43)[C@H](C)C2)cc1` (stereo partly drawn) [Compound A50, 2-(5-amino-2-(furan-2-yl)-7H-pyrazolo[4,3-e][1,2,4]triazolo[1,5-c]pyrimidin-7-yl)-1-((R)-4-(4-(2-methoxyethoxy)phenyl)-2-methylpiperazin-1-yl)-2-phenylethan-1-one] here?
Answer: The IC50 was 1.5 nM.

Question: How did the IC50 turn out when `CCCC(C(=O)N1CCN(c2ccc(OCCOC)c(F)c2F)CC1)n1ncc2c1nc(N)n1nc(-c3ccco3)nc21` (stereo not drawn) [Compound A51, 2-(5-amino-2-(furan-2-yl)-7H-pyrazolo[4,3-e][1,2,4]triazolo[1,5-c]pyrimidin-7-yl)-1-(4-(2,3-difluoro-4-(2-methoxyethoxy)phenyl)piperazin-1-yl)pentan-1-one] was run?
Answer: Its IC50 is 4.8 nM.

Question: How did the IC50 turn out when `COCCOc1ccc(N2CCN(C(=O)C(c3ccccc3)n3ncc4c3nc(N)n3nc(-c5ccco5)nc43)[C@@H](C)C2)cc1` (stereo partly drawn) [Compound A52, 2-(5-amino-2-(furan-2-yl)-7H-pyrazolo[4,3-e][1,2,4]triazolo[1,5-c]pyrimidin-7-yl)-1-((S)-4-(4-(2-methoxyethoxy)phenyl)-2-methylpiperazin-1-yl)-2-phenylethan-1-one] was run?
Answer: Its IC50 is 8.7 nM.

Question: `CCCC(C(=O)N1CCN(c2ccc(OCCOC)c(F)c2)CC1)n1ncc2c1nc(N)n1nc(-c3ccco3)nc21` (stereo not drawn) [Compound A53, 2-(5-amino-2-(furan-2-yl)-7H-pyrazolo[4,3-e][1,2,4]triazolo[1,5-c]pyrimidin-7-yl)-1-(4-(3-fluoro-4-(2-methoxyethoxy)phenyl)piperazin-1-yl)pentan-1-one] was tested. Which IC50 did it give?
Answer: Its IC50 is 5 nM.

Question: For `CCCC(C(=O)N1CCN(c2cc(F)c(OCCOC)cc2F)CC1)n1ncc2c1nc(N)n1nc(-c3ccco3)nc21` (stereo not drawn) [Compound A54, 2-(5-amino-2-(furan-2-yl)-7H-pyrazolo[4,3-e][1,2,4]triazolo[1,5-c]pyrimidin-7-yl)-1-(4-(2,5-difluoro-4-(2-methoxyethoxy)phenyl)piperazin-1-yl)pentan-1-one], which IC50 is on record?
Answer: Its IC50 is 4.9 nM.

Question: How did the IC50 turn out when `COCCOc1ccc(N2CCN(C(=O)C(c3ccccc3)n3ncc4c3nc(N)n3nc(-c5ccco5)nc43)CC2)cc1F` (stereo not drawn) [Compound A55, 2-(5-amino-2-(furan-2-yl)-7H-pyrazolo[4,3-e][1,2,4]triazolo[1,5-c]pyrimidin-7-yl)-1-(4-(3-fluoro-4-(2-methoxyethoxy)phenyl)piperazin-1-yl)-2-phenylethan-1-one] was run?
Answer: Its IC50 is 2.3 nM.

Question: `COCCOc1ccc(N2CCN(C(=O)C(c3ccccc3)n3ncc4c3nc(N)n3nc(-c5ccco5)nc43)CC2)c(F)c1F` (stereo not drawn) [Compound A56, 2-(5-amino-2-(furan-2-yl)-7H-pyrazolo[4,3-e][1,2,4]triazolo[1,5-c]pyrimidin-7-yl)-1-(4-(2,3-difluoro-4-(2-methoxyethoxy)phenyl)piperazin-1-yl)-2-phenylethan-1-one] was tested. Which IC50 did it give?
Answer: Its IC50 is 1.7 nM.

Question: With `COCCOc1cc(F)c(N2CCN(C(=O)C(c3ccccc3)n3ncc4c3nc(N)n3nc(-c5ccco5)nc43)CC2)cc1F` (stereo not drawn) [Compound A57, 2-(5-amino-2-(furan-2-yl)-7H-pyrazolo[4,3-e][1,2,4]triazolo[1,5-c]pyrimidin-7-yl)-1-(4-(2,5-difluoro-4-(2-methoxyethoxy)phenyl)piperazin-1-yl)-2-phenylethan-1-one] as the molecule, how does the IC50 read?
Answer: Its IC50 is 5.3 nM.

Question: `COCCOc1ccc(N2CCN(C(=O)C(C3CCNCC3)n3ncc4c3nc(N)n3nc(-c5ccco5)nc43)CC2)cc1` (stereo not drawn) [Compound A58, 2-(5-amino-2-(furan-2-yl)-7H-pyrazolo[4,3-e][1,2,4]triazolo[1,5-c]pyrimidin-7-yl)-1-(4-(4-(2-methoxyethoxy)phenyl)piperazin-1-yl)-2-(piperidin-4-yl)ethan-1-one] was tested. Which IC50 did it give?
Answer: The IC50 was > 10000 nM.

Question: `COCCOc1ccc(N2CC(C)N(C(=O)C(c3ccccc3)n3ncc4c3nc(N)n3nc(-c5ccco5)nc43)C(C)C2)cc1` (stereo not drawn) [Compound A59, 2-(5-amino-2-(furan-2-yl)-7H-pyrazolo[4,3-e][1,2,4]triazolo[1,5-c]pyrimidin-7-yl)-1-(4-(4-(2-methoxyethoxy)phenyl)-2,6-dimethylpiperazin-1-yl)-2-phenylethan-1-one] was tested. Which IC50 did it give?
Answer: Its IC50 is 18.4 nM.

Question: With `COCCOc1ccc(N2CCN(C(=O)C(C3CCN(C)CC3)n3ncc4c3nc(N)n3nc(-c5ccco5)nc43)CC2)cc1` (stereo not drawn) [Compound A60, 2-(5-amino-2-(furan-2-yl)-7H-pyrazolo[4,3-e][1,2,4]triazolo[1,5-c]pyrimidin-7-yl)-1-(4-(4-(2-methoxyethoxy)phenyl)piperazin-1-yl)-2-(1-methylpiperidin-4-yl)ethan-1-one] as the molecule, how does the IC50 read?
Answer: Its IC50 is > 10000 nM.

Question: How did the IC50 turn out when `Nc1nc2c(cnn2C(C(=O)N2CCN(c3ccc(OCCO)cc3)CC2)c2ccccc2)c2nc(-c3ccco3)nn12` (stereo not drawn) [Compound A61, 2-(5-amino-2-(furan-2-yl)-7H-pyrazolo[4,3-e][1,2,4]triazolo[1,5-c]pyrimidin-7-yl)-1-(4-(4-(2-hydroxyethoxy)phenyl)piperazin-1-yl)-2-phenylethan-1-one] was run?
Answer: Its IC50 is 0.5 nM.

Question: For `CC(O)COc1ccc(N2CCN(C(=O)C(c3ccccc3)n3ncc4c3nc(N)n3nc(-c5ccco5)nc43)CC2)cc1` (stereo not drawn) [Compound A62, 2-(5-amino-2-(furan-2-yl)-7H-pyrazolo[4,3-e][1,2,4]triazolo[1,5-c]pyrimidin-7-yl)-1-(4-(4-(2-hydroxypropoxy)phenyl)piperazin-1-yl)-2-phenylethan-1-one], which IC50 is on record?
Answer: Its IC50 is 1.3 nM.

Question: How did the IC50 turn out when `COCCOc1ccc(N2CCN(C(=O)C(C)(c3ccccc3)n3ncc4c3nc(N)n3nc(-c5ccco5)nc43)CC2)cc1` (stereo not drawn) [Compound A63, 2-(5-amino-2-(furan-2-yl)-7H-pyrazolo[4,3-e][1,2,4]triazolo[1,5-c]pyrimidin-7-yl)-1-(4-(4-(2-methoxyethoxy)phenyl)piperazin-1-yl)-2-phenylpropan-1-one] was run?
Answer: The IC50 was 6.2 nM.

Question: For `COCCOc1ccc(N2CCN(C(=O)C(C)(c3ccccc3)n3ncc4c3nc(N)n3nc(-c5ccco5)nc43)CC2)c(F)c1` (stereo not drawn) [Compound A64, 2-(5-amino-2-(furan-2-yl)-7H-pyrazolo[4,3-e][1,2,4]triazolo[1,5-c]pyrimidin-7-yl)-1-(4-(2-fluoro-4-(2-methoxyethoxy)phenyl)piperazin-1-yl)-2-phenylpropan-1-one], which IC50 is on record?
Answer: Its IC50 is 4.8 nM.

Question: How did the IC50 turn out when `COCCOc1ccc(N2CCN(C(=O)[C@](C)(c3ccccc3)n3ncc4c3nc(N)n3nc(-c5ccco5)nc43)CC2)c(F)c1` [Compound A64a, (S)-2-(5-amino-2-(furan-2-yl)-7H-pyrazolo[4,3-e][1,2,4]triazolo[1,5-c]pyrimidin-7-yl)-1-(4-(2-fluoro-4-(2-methoxyethoxy)phenyl)piperazin-1-yl)-2-phenylpropan-1-one] was run?
Answer: The IC50 was 17.5 nM.

Question: `COCCOc1ccc(N2CCN(C(=O)[C@@](C)(c3ccccc3)n3ncc4c3nc(N)n3nc(-c5ccco5)nc43)CC2)c(F)c1` [Compound A64b, (R)-2-(5-amino-2-(furan-2-yl)-7H-pyrazolo[4,3-e][1,2,4]triazolo[1,5-c]pyrimidin-7-yl)-1-(4-(2-fluoro-4-(2-methoxyethoxy)phenyl)piperazin-1-yl)-2-phenylpropan-1-one] was tested. Which IC50 did it give?
Answer: Its IC50 is 2.2 nM.

Question: How did the IC50 turn out when `COCCOc1cc(F)c(N2CCN(C(=O)C(C)(c3ccccc3)n3ncc4c3nc(N)n3nc(-c5ccco5)nc43)CC2)cc1F` (stereo not drawn) [Compound A65, 2-(5-amino-2-(furan-2-yl)-7H-pyrazolo[4,3-e][1,2,4]triazolo[1,5-c]pyrimidin-7-yl)-1-(4-(2,5-difluoro-4-(2-methoxyethoxy)phenyl)piperazin-1-yl)-2-phenylpropan-1-one] was run?
Answer: The IC50 was 6.4 nM.

Question: Which IC50 does the source give for `COCCOc1cc(F)c(N2CCN(C(=O)[C@](C)(c3ccccc3)n3ncc4c3nc(N)n3nc(-c5ccco5)nc43)CC2)cc1F` [Compound A65a, (S)-2-(5-amino-2-(furan-2-yl)-7H-pyrazolo[4,3-e][1,2,4]triazolo[1,5-c]pyrimidin-7-yl)-1-(4-(2,5-difluoro-4-(2-methoxyethoxy)phenyl)piperazin-1-yl)-2-phenylpropan-1-one] here?
Answer: Its IC50 is 21.4 nM.

Question: Which IC50 does the source give for `COCCOc1cc(F)c(N2CCN(C(=O)[C@@](C)(c3ccccc3)n3ncc4c3nc(N)n3nc(-c5ccco5)nc43)CC2)cc1F` [Compound A65b, (R)-2-(5-amino-2-(furan-2-yl)-7H-pyrazolo[4,3-e][1,2,4]triazolo[1,5-c]pyrimidin-7-yl)-1-(4-(2,5-difluoro-4-(2-methoxyethoxy)phenyl)piperazin-1-yl)-2-phenylpropan-1-one] here?
Answer: The IC50 was 3.3 nM.

Question: With `COCCOc1ccc(N2CCN(C(=O)C(C)(c3ccccc3)n3ncc4c3nc(N)n3nc(-c5ccco5)nc43)CC2)cc1F` (stereo not drawn) [Compound A66, 2-(5-amino-2-(furan-2-yl)-7H-pyrazolo[4,3-e][1,2,4]triazolo[1,5-c]pyrimidin-7-yl)-1-(4-(3-fluoro-4-(2-methoxyethoxy)phenyl)piperazin-1-yl)-2-phenylpropan-1-one] as the molecule, how does the IC50 read?
Answer: Its IC50 is 6.5 nM.
